Laboratory results published in patent publication US20040234981A1, “Method of determining dna base sequence” (priority 2001, published 2004).
“And” between values parts separate entries of the source, which are not always exact repeats. Identical values can stand only once.

What was measured:
3′-dATP [1] = assay: Test (1): 3′-dATP added during in vitro transcription, amount of RNA synthesized (SYBER Green II gel image); assay type: biochemical; settings: 3′-dATP concentration 0.024 mM, wild form of T7 RNA polymerase taken as 1, inverse of RNA synthesis level
Procedure: (§1) The ability to incorporate 3′-dATP of the Δ type enzyme of purified T7 RNA polymerase was compared to that of the wild type and F644Y mutation.
In this method, 3′-dATP was added during an in vitro transcription reaction and the synthesis level was determined by comparison with synthesis impairment. This will be described in greater detail. The template employed was pBluescriptII (Stratagene) pretreated with the restriction enzyme ScaI (made by Nippon Gene). The reaction conditions were: 40 mM Tris-HCl, pH 8.0, 25 mM NaCl, 8 mM MgCl2, 2 mM spermidine-(HCl)3, and 5 mM DTT. The concentration of nucleotides ATP, CTP, GTP, and UTP was 0.5 mM. Of these, ATP was replaced with 3′-dATP (Sigma) in ranges of 0.006 mM, 0.008 mM, 0.012 mM, and 0.024 mM. The above purified enzymes were added to 20 μL of this solution and the reaction was conducted for 30 to 60 min at 37° C. At the conclusion of the reaction, 4 μL of 5× gel loading buffer was added (15% Ficoll, 0.1% BPB, 0.1% XC, 0.5% SDS, and 0.1 M EDTA). The entire solution was then subjected to electrophoresis in a 1% modified agarose gel containing formaldehyde. At the conclusion of electrophoresis, 10,000-fold dilution was conducted with SYBER Green II (made by Molecular Probe Co.) and dying was conducted for 20 to 40 min according to a protocol of addition to the product. A Fluoro S Multiimager (BiORad Co.) was then employed to irradiate ultraviolet radiation and pick up the fluorescent image. Multianalyst, an attached image analyzing software package, was used to determine the amount of RNA that had been synthesized from the image picked up. The various values of the results were compared. An increase in ability to incorporate 3′-dATP should result in a drop in the synthesis level. Accordingly, a comparison was made with a control, and the inverse thereof was employed as indicator of how readily 3′-dATP was incorporated.

3′-dATP [2] = assay: Test (2): 3′-dATP added during in vitro transcription with Biotin-labeled CTP, chemoluminescent signal detection; assay type: biochemical; settings: 3′-dATP concentration 0.00125 mM, wild form taken as 1, average of three runs
Procedure: as §1
In this method, 3′-dATP was added during an in vitro transcription reaction and the synthesis level was determined by comparison with synthesis impairment. This will be described in greater detail. The template employed was pBluescriptII (Stratagene) pretreated with the restriction enzyme ScaI (made by Nippon Gene). The reaction conditions were: 40 mM Tris-HCl, pH 8.0, 25 mM NaCl, 8 mM MgCl2, 2 mM spermidine-(HCl)3, and 5 mM DTT. The concentration of ribonucleotides rATP, rCTP, rGTP, and rUTP was 0.5 mM. A 0.1 mM quantity of Biotin-labeled CTP was added and 3′-dATP was added in ranges of 0.00125 mM, 0.0025 mM, and 0.005 mM. A 25 U quantity of enzymes purified as set forth above were added to 10 μL of this solution and the reaction was conducted for 60 min at 37° C. At the conclusion of the reaction, 1 μL of 10× gel loading buffer (1 mM EDTA, 1% SDS, 50% glycerol, and 0.05% BPB) was added. The entire solution was then subjected to electrophoresis in a 1% modified formamide gel. At the conclusion of electrophoresis, northern hybridization was conducted, the synthesized product was transcribed onto a nylon membrane, and signal detection was conducted based on a chemoluminescent substrate according to a protocol of anti-SA-AP antibody (made by Oriental Yeast Co., diluted 20,000-fold) and CDP-Star™ (made by Roche Co.). A Fluoro S Multiimager (BioRad Co.) and Multianalyst, an attached image analyzing software package, were then employed to determine the level of the signal detected.

[3] = tested on: fluorescent-labeled 3′-deoxynucleotide; assay: Ability to incorporate fluorescent-labeled 3′-deoxynucleotide, fluorescent signal intensity on ABI 377 XL Sequencer; assay type: biochemical; settings: for (1) Average signal intensity U: Bodipy(564/570)-3′dUTP; for (1) Average signal intensity U / (1) Average signal intensity C / (1) Average signal intensity G / (1) Average signal intensity A: 100 units of enzyme (50 units for F644Y/Δ1); for (1) Average signal intensity C: Bodipy(581/591)-3′dCTP; for (1) Average signal intensity G: Bodipy(FL)-3′dGTP; for (1) Average signal intensity A: Bodipy(R6G)-3′dATP; for (2) Signal intensity per unit of enzyme G: conversion of (1) per unit of enzyme; for Signal intensity per unit of enzyme A, value in parentheses relative to wild enzyme / Signal intensity per unit of enzyme C, value in parentheses relative to wild enzyme / Signal intensity per unit of enzyme G, value in parentheses relative to wild enzyme / Signal intensity per unit of enzyme U, value in parentheses relative to wild enzyme: relative to a value of 1 for the signal intensity of wild enzyme
Procedure: A comparison was conducted of the ability to incorporate florescent-labeled 3′-deoxynucleotide of Δ-type enzyme of purified T7 RNA polymerase.
This method was conducted in accordance with the method of Sasaki et al. (Sasaki, N., et al. Gene, 222(1): 17-24 (1998)). In greater detail, pBluescriptII DNA was employed as template. A solution obtained by mixing Bodipy(R6G)-3′dATP, Bodipy(FL)-3′dGTP, Bodipy(581/591)-3′dCTP, Bodipy(564/570)-3′dUTP, ATP, GTP, CTP, and UTP in prescribed proportions was employed to conduct reactions differing only with regard to the T7 RNA polymerase employed. The enzymes employed were 100 units of T7 RNA polymerase (wild type) and T7 RNA polymerase F644Y; and 50 units of T7 RNA polymerase F644Y/Δ1. The reaction product was subjected to electrophoresis with an ABI 377 XL Sequencer. The average value of the fluorescent signal intensity was compared for each nucleotide.
Column (2) is a conversion of the value of (1) per unit of enzyme. Numbers shown in parentheses denote values relative to a value of “1” for the signal intensity of wild enzyme. […] Since the ABI 377 XL Sequencer is not a device for quantitative analysis, and operations is conducted on an extremely small amount of samples, large errors are to be expected.

3′-deoxy nucleotide = settings: Izawa, M., et al. J. Biol. Chem., 273 (23): 14242 (1998); cited from earlier work

(2) Signal intensity per unit of enzyme G [3]	Signal intensity per unit of enzyme A, value in parentheses relative to wild enzyme [3]	Signal intensity per unit of enzyme C, value in parentheses relative to wild enzyme [3]	Signal intensity per unit of enzyme G, value in parentheses relative to wild enzyme [3]	Signal intensity per unit of enzyme U, value in parentheses relative to wild enzyme [3]	Molecule	Relative ability to incorporate 3′-dATP (3′-dATP [1])	Relative ability to incorporate 3′-dATP (3′-dATP [2])	Relative ability to incorporate 3′-dATP (3′-dATP [2]; listed as F644Y)	(1) Average signal intensity U [3]	(1) Average signal intensity C [3]	(1) Average signal intensity G [3]	(1) Average signal intensity A [3]	Increase in ability to incorporate 3′-deoxy nucleotide relative to the corresponding wild form (3′-deoxy nucleotide)	Relative ability to incorporate 3′-dATP (3′-dATP [2]; listed as F644Y/Δ1)	Relative ability to incorporate 3′-dATP (3′-dATP [2]; listed as T7 RNA polymerase F644Y/Δ 1)
2.0	(1.1)	(0.9)	(0.9)	(1.1)	T7 RNA polymerase F644Y: mutant T7 RNA polymerase, tyrosine substituted for phenylalanine at residue 644; plasmid pT7RF644Y	1.45	1.20 ± 0.3	1.20±0.3 and 1.20	134	136	199	74	about fivefold		
8.92	(2.3)	(2.2)	(4.0)	(2.8)	T7 RNA polymerase F644Y/Δ1: T7 RNA polymerase F644Y deficient in amino acids 172 and 173; plasmid pT7RF644Y/Δ1, FERM BP-7619 (protein, UniProt P00573 1-883, looked up, variant F644Y del172-173) T7 RNA polymerase: MNTINIAKNDFSDIELAAIPFNTLADHYGERLAREQLALEHESYEMGEARFRKMFERQLKAGEVADNAAAKPLITTLLPKMIARINDWFEEVKAKRGKRPTAFQFLQEIKPEAVAYITIKTTLACLTSADNTTVQAVASAIGRAIEDEARFGRIRDLEAKHFKKNVEEQLNVGHVYKKAFMQVVEADMLSKGLLGGEAWSSWHKEDSIHVGVRCIEMLIESTGMVSLHRQNAGVVGQDSETIELAPEYAEAIATRAGALAGISPMFQPCVVPPKPWTGITGGGYWANGRRPLALVRTHSKKALMRYEDVYMPEVYKAINIAQNTAWKINKKVLAVANVITKWKHCPVEDIPAIEREELPMKPEDIDMNPEALTAWKRAAAAVYRKDKARKSRRISLEFMLEQANKFANHKAIWFPYNMDWRGRVYAVSMFNPQGNDMTKGLLTLAKGKPIGKEGYYWLKIHGANCAGVDKVPFPERIKFIEENHENIMACAKSPLENTWWAEQDSPFCFLAFCFEYAGVQHHGLSYNCSLPLAFDGSCSGIQHFSAMLRDEVGGRAVNLLPSETVQDIYGIVAKKVNEILQADAINGTDNEVVTVTDENTGEISEKVKLGTKALAGQWLAYGVTRSVTKRSVMTLAYGSKEYGFRQQVLEDTIQPAIDSGKGLMFTQPNQAAGYMAKLIWESVSVTVVAAVEAMNWLKSAAKLLAAEVKDKKTGEILRKRCAVHWVTPDGFPVWQEYKKPIQTRLNLMFLGQFRLQPTINTNKDSEIDAHKQESGIAPNFVHSQDGSHLRKTVVWAHEKYGIESFALIHDSFGTIPADAANLFKAVRETMVDTYESCDVLADFYDQFADQLHESQLDKMPALPAKGNLNLRDILESDFAFA	15.5			332	317	446	156		2.30±0.3 and 2.30	2.30 ± 0.3
